Assay results: ChEMBL document CHEMBL4622979, “Non-rigid Diarylmethyl Analogs of Baloxavir as Cap-Dependent Endonuclease Inhibitors of Influenza Viruses” (J Med Chem, 2020)
The source made the active and inactive calls. The rule behind the calls is not given here.

Experiments:
Influenza A virus [1] = assay: (§1) Antiviral activity against Influenza A/California/04/2009 (H1N1)pdm09 infected in specific pathogen-free BALB/c mouse assessed as protection against virus-induced mouse death at 50 mg/kg, po administered via gavage immediately after infection and at 12 hrs post-infection measured on 16 days post-infection relative to control; type: functional
[2] = Stability in simulated intestinal fluid assessed as parent compound remaining at 1 uM measured after 4 hrs at pH 1.2 by LC-MS/MS analysis; type: physicochemical; settings: read-out: Stability
[3] = AUCinfinity in CD1 mouse muscle assessed as (12aR)-12-(Diphenylmethyl)-7-hydroxy-3,4,12,12a-tetrahydro-1H-[1,4]oxazino[3,4-c]pyrido[2,1-f ][1,2,4]triazine-6,8-dione level at 15 mg/kg, po administered as single dose measured up to 24 hrs by LC-MS/MS analysis; type: ADME, organism-based, Muscle tissue; parameters: dose 15 mg/kg, route oral, time infinity; settings: in vivo
[4] = Cmax in CD1 mouse lung assessed as (12aR)-12-(Diphenylmethyl)-7-hydroxy-3,4,12,12a-tetrahydro-1H-[1,4]oxazino[3,4-c]pyrido[2,1-f ][1,2,4]triazine-6,8-dione level at 15 mg/kg, po administered as single dose measured up to 24 hrs by LC-MS/MS analysis; type: ADME, organism-based; parameters: dose 15 mg/kg, route oral; settings: in vivo
[5] = Protein binding in mouse plasma at 1 uM measured after 4 hrs by LC-MS/MS analysis; type: ADME, cell-free; settings: read-out: PPB (converted)
[6] = Stability in simulated gastric fluid assessed as parent compound remaining at 1 uM measured after 4 hrs at pH 1.2 by LC-MS/MS analysis; type: physicochemical; settings: read-out: Stability
[7] = Protein binding in rat plasma at 1 uM measured after 4 hrs by LC-MS/MS analysis; type: ADME, cell-free; settings: read-out: PPB (converted)
[8] = Cmax in CD1 mouse plasma assessed as (12aR)-12-(Diphenylmethyl)-7-hydroxy-3,4,12,12a-tetrahydro-1H-[1,4]oxazino[3,4-c]pyrido[2,1-f ][1,2,4]triazine-6,8-dione level at 15 mg/kg, po administered as single dose by LC-MS/MS analysis; type: ADME, organism-based; parameters: dose 15 mg/kg, route oral; settings: in vivo
[9] = Tmax in CD1 mouse lung assessed as (12aR)-12-(Diphenylmethyl)-7-hydroxy-3,4,12,12a-tetrahydro-1H-[1,4]oxazino[3,4-c]pyrido[2,1-f ][1,2,4]triazine-6,8-dione level at 15 mg/kg, po administered as single dose measured up to 24 hrs by LC-MS/MS analysis; type: ADME, organism-based; settings: in vivo
Influenza A virus [10] = assay: as §1, with “20” for “50”; type: functional
[11] = Elimination rate constant in CD1 mouse spleen assessed as (12aR)-12-(Diphenylmethyl)-7-hydroxy-3,4,12,12a-tetrahydro-1H-[1,4]oxazino[3,4-c]pyrido[2,1-f ][1,2,4]triazine-6,8-dione level at 15 mg/kg, po administered as single dose measured up to 24 hrs by LC-MS/MS analysis; type: ADME, organism-based; settings: in vivo
[12] = Half life in CD1 mouse kidney assessed as (12aR)-12-(Diphenylmethyl)-7-hydroxy-3,4,12,12a-tetrahydro-1H-[1,4]oxazino[3,4-c]pyrido[2,1-f ][1,2,4]triazine-6,8-dione level at 15 mg/kg, po administered as single dose measured up to 24 hrs by LC-MS/MS analysis; type: ADME, organism-based; settings: in vivo
[13] = Toxicity in Influenza A/California/04/2009 (H1N1)pdm09 infected specific pathogen-free BALB/c mouse assessed as effect on body weight at 20 to 50 mg/kg, po administered via gavage immediately after infection and at 12 hrs post-infection measured after 10 days post-infection; type: organism-based; settings: in vivo, 240 h
[14] = Half life in CD1 mouse muscle assessed as (12aR)-12-(Diphenylmethyl)-7-hydroxy-3,4,12,12a-tetrahydro-1H-[1,4]oxazino[3,4-c]pyrido[2,1-f ][1,2,4]triazine-6,8-dione level at 15 mg/kg, po administered as single dose measured up to 24 hrs by LC-MS/MS analysis; type: ADME, organism-based, Muscle tissue; settings: in vivo
[15] = MRTlast in CD1 mouse plasma assessed as (12aR)-12-(Diphenylmethyl)-7-hydroxy-3,4,12,12a-tetrahydro-1H-[1,4]oxazino[3,4-c]pyrido[2,1-f ][1,2,4]triazine-6,8-dione level at 15 mg/kg, po administered as single dose measured up to 24 hrs by LC-MS/MS analysis; type: ADME, organism-based; settings: in vivo
Influenza A virus [16] = assay: Antiviral activity against Influenza A/California/04/2009 (H1N1)pdm09 infected in specific pathogen-free BALB/c mouse assessed as reduction in virus titre in lung at 50 mg/kg, po administered via gavage immediately after infection and at 12 hrs post-infection measured 24 hrs post-infection; type: functional, organism-based
[17] = Half life in CD1 mouse brain assessed as (12aR)-12-(Diphenylmethyl)-7-hydroxy-3,4,12,12a-tetrahydro-1H-[1,4]oxazino[3,4-c]pyrido[2,1-f ][1,2,4]triazine-6,8-dione level at 15 mg/kg, po administered as single dose measured up to 24 hrs by LC-MS/MS analysis; type: ADME, organism-based; settings: in vivo
[18] = Protein binding in human plasma at 1 uM measured after 4 hrs by LC-MS/MS analysis; type: ADME, cell-free; settings: read-out: PPB (converted)
[19] = Tmax in CD1 mouse muscle assessed as baloxavir acid level at 15 mg/kg, po administered as single dose measured up to 24 hrs by LC-MS/MS analysis; type: ADME, organism-based, Muscle tissue; settings: in vivo
[20] = AUCinfinity in CD1 mouse liver assessed as baloxavir acid level at 15 mg/kg, po administered as single dose measured up to 24 hrs by LC-MS/MS analysis; type: ADME, organism-based; parameters: dose 15 mg/kg, route oral, time infinity; settings: in vivo
[21] = Half life in CD1 mouse liver assessed as baloxavir acid level at 15 mg/kg, po administered as single dose measured up to 24 hrs by LC-MS/MS analysis; type: ADME, organism-based; settings: in vivo
[22] = Oral bioavailability in CD1 mouse assessed as baloxavir acid level at 15 mg/kg administered as single dose by LC-MS/MS analysis; type: ADME, organism-based; settings: in vivo
[23] = Cmax in CD1 mouse lung assessed as baloxavir acid level at 15 mg/kg, po administered as single dose measured up to 24 hrs by LC-MS/MS analysis; type: ADME, organism-based; parameters: dose 15 mg/kg, route oral; settings: in vivo
[24] = AUCinfinity in CD1 mouse brain assessed as baloxavir acid level at 15 mg/kg, po administered as single dose measured up to 24 hrs by LC-MS/MS analysis; type: ADME, organism-based; parameters: dose 15 mg/kg, time infinity, route oral; settings: in vivo
[25] = Ratio of AUClast in CD1 mouse heart to plasma assessed as baloxavir acid level at 15 mg/kg, po administered as single dose measured up to 24 hrs by LC-MS/MS analysis; type: ADME, organism-based; settings: other tissue
[26] = Tmax in CD1 mouse small intestine assessed as baloxavir acid level at 15 mg/kg, po administered as single dose measured up to 24 hrs by LC-MS/MS analysis; type: ADME, organism-based; settings: in vivo
[27] = Tmax in CD1 mouse plasma assessed as baloxavir acid level at 15 mg/kg, po administered as single dose measured up to 24 hrs by LC-MS/MS analysis; type: ADME, organism-based; settings: in vivo
[28] = Half life in CD1 mouse blood assessed as baloxavir acid level at 15 mg/kg, po administered as single dose measured up to 24 hrs by LC-MS/MS analysis; type: ADME, organism-based; settings: in vivo
[29] = Ratio of AUClast in CD1 mouse kidney to plasma assessed as baloxavir acid level at 15 mg/kg, po administered as single dose measured up to 24 hrs by LC-MS/MS analysis; type: ADME, organism-based; settings: other tissue

## COC(=O)OCOc1c2n(ccc1=O)N(C(c1ccccc1)c1ccccc1)[C@@H]1COCCN1C2=O
Influenza A virus [1]
  Activity: 80%
[2]
  remaining at 4 h, 1 µM: 93.7%
[3]
  AUC: 7693 ng·h/g
[4]
  Cmax: 2847 ng/g
[5]
  fraction unbound at 4 h, 1 µM: 0.009
[6]
  remaining at 4 h, 1 µM: 94.8%
[7]
  fraction unbound at 4 h, 1 µM: 0.016
[8]
  Cmax: 875 ng/mL
[9]
  Tmax: 0.5 h
Influenza A virus [10]
  Activity: 80%
[11]
  Kel: 0.39 h⁻¹
[12]
  t1/2: 2.57 h
[13]
  Activity: Non-Toxic
[14]
  t1/2: 1.71 h
[15]
  MRTlast: 1.67 h
Influenza A virus [16]
  Activity: Active
[17]
  t1/2: 8.18 h
[18]
  fraction unbound at 4 h, 1 µM: 0.01

## COC(=O)OCOc1c2n(ccc1=O)N([C@@H]1c3ccccc3SCc3c1ccc(F)c3F)[C@@H]1COCCN1C2=O [BALOXAVIR MARBOXIL]
[19]
  Tmax: 2 h
[20]
  AUC: 85348 ng·h/g
Influenza A virus [1]
  Activity: 90%
[21]
  t1/2: 2.57 h
[2]
  remaining at 4 h, 1 µM: 87.9%
[5]
  fraction unbound at 4 h, 1 µM: 0.08
[6]
  remaining at 4 h, 1 µM: 101%
[22]
  F: 26.9%
[23]
  Cmax: 1188 ng/g
[24]
  AUC: 411 ng·h/g
[7]
  fraction unbound at 4 h, 1 µM: 0.064
[25]
  Ratio AUC: 19.8
[26]
  Tmax: 0.5 h
[27]
  Tmax: 2 h
Influenza A virus [10]
  Activity: 80%
[13]
  Activity: Non-Toxic
[28]
  t1/2: 3.29 h
Influenza A virus [16]
  Activity: Active
[29]
  Ratio AUC: 46.8
[18]
  fraction unbound at 4 h, 1 µM: 0.057
